From paper PMC8151276, “An Integrated Approach toward NanoBRET Tracers for Analysis of GPCR Ligand Engagement” (Molecules, 2021)

Experiments:
Type in all cases: binding
CXCR5 = molecular target: T1, CXCR5 (Homo sapiens, UniProt P32302); test: NanoBRET screen HiBiT-CXCR5 in HEK293
T1 construct: purchased Promega (in-house HiBiT-GPCR construct library, NanoBRET)
T1 sequence (P32302 1-372): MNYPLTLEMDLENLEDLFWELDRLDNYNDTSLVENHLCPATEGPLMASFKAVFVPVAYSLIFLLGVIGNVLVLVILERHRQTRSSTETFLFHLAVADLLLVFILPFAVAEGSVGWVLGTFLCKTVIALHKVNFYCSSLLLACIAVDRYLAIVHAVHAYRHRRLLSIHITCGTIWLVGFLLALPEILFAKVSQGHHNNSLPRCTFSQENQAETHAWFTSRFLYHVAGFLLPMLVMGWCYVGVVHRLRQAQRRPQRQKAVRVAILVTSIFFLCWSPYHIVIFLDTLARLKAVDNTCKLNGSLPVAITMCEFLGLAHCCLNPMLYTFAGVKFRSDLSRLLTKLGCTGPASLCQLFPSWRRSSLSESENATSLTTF
Description: (§1) Each tracer candidate was screened across the entire library of HiBiT-GPCR constructs using NanoBRET as the detection modality. As depicted in Figure 4A, the specificity of interactions was evaluated through decrease in BRET due to competitive displacement of a bound tracer by excess parental compound. Each tracer was analyzed for binding to each HiBiT-GPCR fusion in the absence and in the presence of competing parental compound. Briefly, HEK293 cells were transfected with HiBiT-GPCR constructs diluted into promoterless DNA to reduce expression and maximize translocation to the cell surface. Each tracer candidate was then screened at concentrations of 1 μM and 0.1 μM across cells expressing these fusions. Cells were treated for 1.5 h with tracer either alone or in the presence of 20 μM competing parental compound (i.e., control). BRET was measured upon addition of purified LgBiT and subsequent complementation with HiBiT genetically fused to a GPCR. The specificity of interactions was assessed through a decrease in BRET signal due to competitive displacement of the bound tracer. To further gauge the robustness of these interactions, the fold response over the control (i.e., BRETtracer/BRETcontrol) was calculated. We chose a 1.5-fold response, which translates to ≥7-fold signal over noise as the minimal threshold required to score an interaction as positive. […]. Below we highlight the screening results obtained for our exemplary fluorescent tracers based on Clozapine, Amitriptyline and AZD1283.
(§2) HiBiT-GPCR DNA constructs were diluted in 10 mM Tris pH 8 to a final concentration of 0.01 μg/μL, arrayed in 96-well plates and stored at −20 °C. For transfection, HEK293 cells were suspended in Opti-MEM (without phenol red) supplemented with 2% fetal bovine serum (Seradigm) and 100 units/mL penicillin–streptomycin (Gibco) at a final concentration of 220,000 cells/mL and dispensed into white 96-well plates at 90 μL/well. Subsequent transfections and screens were carried using an Agilent Bravo Automated Liquid Handling Platform. First, the 96-well HiBiT DNA arrays were diluted 25-fold in Opti-MEM (without serum or phenol red) to a final concentration of 0.0004 μg/μL and 20 μL of the diluted DNAs were transferred into new 96-well plates. Next, promoterless carrier DNA (1 μg/μL) was diluted 25-fold (0.04 μg/μL) and then dispensed into the diluted arrays at 20 μL/well. Following brief mixing, Viafect transfection reagent (Promega) diluted 16-fold into Opti-MEM was dispensed into the plates at 40 μL/well. After mixing by pipetting, plates were incubated for 10 min on the pipetting station deck. The DNA-transfection reagent complexes were then added to plates containing cells. To facilitate the screen, 10 μL of DNA-transfection reagent complexes were added in duplicates to the top 4 and bottom 4 rows, resulting in two identical 48-well arrays per plate. Plates with transfected cells were incubated for 18–20 h at 37 °C/5% CO2. A screen of each tracer across the entire library using two different concentrations requires duplicate plates of transfected cells. Depending on the number of tracers being screened, transfections can be scaled up using the same ratios. The next day, for each tracer, four 20× screening solutions in tracer dilution buffer (Promega) were prepared: two duplicates at final concentration of 20 μM and two duplicates at a final concentration of 2 μM. A competing unmodified compound was added to one of each duplicate at a final concentration of 400 μM. The four resulting solutions were diluted 4-fold in Opti-MEM without serum or phenol red to generate 5× solutions (5 µM and 0.5 µM tracer +/− 100 μM competing compound). To screen the library, a BioTek MultiFlo FX liquid dispenser was used to dispense 22.5 µL of tracer solution to the top 4 rows and 22.5 µL tracer + competing compound solution to the 4 bottom rows. Plates were briefly mixed on an orbital shaker and incubated for 1.5 h at room temperature. […]

MTNR1B = molecular target: T2, MTNR1B (Homo sapiens, UniProt P49286); test: NanoBRET screen HiBiT-MTNR1B in HEK293
T2 construct: purchased Promega (in-house HiBiT-GPCR construct library, NanoBRET)
T2 sequence (P49286 1-362): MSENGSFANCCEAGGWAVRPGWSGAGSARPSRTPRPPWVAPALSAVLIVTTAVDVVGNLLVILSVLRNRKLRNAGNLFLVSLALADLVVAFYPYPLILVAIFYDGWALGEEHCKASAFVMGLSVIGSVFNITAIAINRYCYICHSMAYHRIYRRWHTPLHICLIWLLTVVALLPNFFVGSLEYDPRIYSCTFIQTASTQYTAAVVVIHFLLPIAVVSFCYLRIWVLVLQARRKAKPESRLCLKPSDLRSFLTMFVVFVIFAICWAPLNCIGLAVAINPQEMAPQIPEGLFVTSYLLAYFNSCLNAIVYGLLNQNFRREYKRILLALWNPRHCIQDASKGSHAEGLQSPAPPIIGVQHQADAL
Description: as §1, §2

HTR1E = molecular target: T3, HTR1E (Homo sapiens, UniProt P28566); test: NanoBRET screen HiBiT-HTR1E in HEK293
T3 construct: purchased Promega (in-house HiBiT-GPCR construct library, NanoBRET)
T3 sequence (P28566 whole entry): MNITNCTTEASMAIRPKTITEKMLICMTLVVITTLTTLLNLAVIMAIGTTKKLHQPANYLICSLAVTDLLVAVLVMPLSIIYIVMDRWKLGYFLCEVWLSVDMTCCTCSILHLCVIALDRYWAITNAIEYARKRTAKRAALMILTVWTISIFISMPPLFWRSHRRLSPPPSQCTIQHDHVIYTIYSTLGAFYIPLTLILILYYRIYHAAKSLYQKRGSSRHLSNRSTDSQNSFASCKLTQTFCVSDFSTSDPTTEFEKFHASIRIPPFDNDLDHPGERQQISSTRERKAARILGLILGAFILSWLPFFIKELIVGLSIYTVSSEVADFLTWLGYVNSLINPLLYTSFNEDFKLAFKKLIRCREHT
Description: as §1, §2

FPR1 = molecular target: T4, FPR1 (Homo sapiens, UniProt P21462); test: NanoBRET screen HiBiT-FPR1 in HEK293
T4 construct: purchased Promega (in-house HiBiT-GPCR construct library, NanoBRET)
T4 sequence (P21462 1-350): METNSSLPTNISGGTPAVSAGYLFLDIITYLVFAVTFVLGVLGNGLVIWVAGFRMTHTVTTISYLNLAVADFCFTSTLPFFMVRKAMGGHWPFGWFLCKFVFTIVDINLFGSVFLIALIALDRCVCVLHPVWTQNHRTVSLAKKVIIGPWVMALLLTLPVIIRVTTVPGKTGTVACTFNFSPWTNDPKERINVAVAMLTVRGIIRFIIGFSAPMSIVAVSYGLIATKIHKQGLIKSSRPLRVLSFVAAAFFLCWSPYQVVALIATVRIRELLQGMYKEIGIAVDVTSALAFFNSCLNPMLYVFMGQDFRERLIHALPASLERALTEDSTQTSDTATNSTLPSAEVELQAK
Description: as §1, §2

COc1ccc2c(n1)c(CCNC(C)=O)cn2CCNC(=O)CCc1ccc2n1[B-](F)(F)[N+]1=C(c3ccc[nH]3)C=CC1=C2 [Azamelatonin-1-NB590]
NanoBRET Fold Response (CXCR5; 0.1μM tracer): 0.93
NanoBRET Fold Response (CXCR5; 1μM tracer): 1.19
NanoBRET Fold Response (MTNR1B; 0.1μM tracer): 1.07
NanoBRET Fold Response (MTNR1B; 1μM tracer): 1.12
NanoBRET Fold Response (HTR1E; 0.1μM tracer): 0.99
NanoBRET Fold Response (HTR1E; 1μM tracer): 0.99
NanoBRET Fold Response (FPR1; 0.1μM tracer): 0.96
NanoBRET Fold Response (FPR1; 1μM tracer): 1.09

CC(C)N(CC[C@H](c1ccccc1)c1cc(CCNC(=O)c2ccc(CNC(=O)CCc3ccc4n3[B-](F)(F)[N+]3=C(c5ccc[nH]5)C=CC3=C4)cc2)ccc1O)C(C)C [Tolterodine-BZ-NB590]
NanoBRET Fold Response (CXCR5; CXCR5, tracer 0.1μM): 0.86
NanoBRET Fold Response (CXCR5; CXCR5, tracer 1μM): 0.91
NanoBRET Fold Response (MTNR1B; MTNR1B, tracer 0.1μM): 0.97
NanoBRET Fold Response (MTNR1B; MTNR1B, tracer 1μM): 1.04
NanoBRET Fold Response (HTR1E; HTR1E, tracer 0.1μM): 1.13
NanoBRET Fold Response (HTR1E; HTR1E, tracer 1μM): 1.13
NanoBRET Fold Response (FPR1; FPR1, tracer 0.1μM): 1.02
NanoBRET Fold Response (FPR1; FPR1, tracer 1μM): 1.02

O=C(CCc1ccc2n1[B-](F)(F)[N+]1=C(c3ccc[nH]3)C=CC1=C2)NCCOCCOCCNC(=O)OCCOCCN1CCN(C2=Nc3ccccc3Sc3ccccc32)CC1 [Quetiapine-a-2-NB590]
NanoBRET Fold Response (CXCR5; CXCR5, tracer 0.1μM): 1.01
NanoBRET Fold Response (CXCR5; CXCR5, tracer 1μM): 0.92
NanoBRET Fold Response (MTNR1B; MTNR1B, tracer 0.1μM): 1.11
NanoBRET Fold Response (MTNR1B; MTNR1B, tracer 1μM): 0.92
NanoBRET Fold Response (HTR1E; HTR1E, tracer 0.1μM): 0.96
NanoBRET Fold Response (HTR1E; HTR1E, tracer 1μM): 0.99
NanoBRET Fold Response (FPR1; FPR1, tracer 0.1μM): 1.05
NanoBRET Fold Response (FPR1; FPR1, tracer 1μM): 0.92

Cc1cc2c(s1)Nc1ccccc1N=C2N1CCN(CCCNC(=O)CCOCCOCCOCCOCCNC(=O)CCc2ccc3n2[B-](F)(F)[N+]2=C(c4ccc[nH]4)C=CC2=C3)CC1 [Olanzapine-a-2-NB590]
NanoBRET Fold Response (CXCR5; CXCR5, tracer 0.1μM): 0.98
NanoBRET Fold Response (CXCR5; CXCR5, tracer 1μM): 0.86
NanoBRET Fold Response (MTNR1B; MTNR1B, tracer 0.1μM): 0.96
NanoBRET Fold Response (MTNR1B; MTNR1B, tracer 1μM): 0.94
NanoBRET Fold Response (HTR1E; HTR1E, tracer 0.1μM): 0.99
NanoBRET Fold Response (HTR1E; HTR1E, tracer 1μM): 1.09
NanoBRET Fold Response (FPR1; FPR1, tracer 0.1μM): 1.09
NanoBRET Fold Response (FPR1; FPR1, tracer 1μM): 1.01

O=C(CCc1ccc2n1[B-](F)(F)[N+]1=C(c3ccc[nH]3)C=CC1=C2)NCc1ccc(C(=O)NCCOCCOCCNCC(O)COc2cccc3ccccc23)cc1 (stereo not shown) [Propranolol-3-NB590]
NanoBRET Fold Response (CXCR5; CXCR5, 0.1μM): 1.02
NanoBRET Fold Response (CXCR5; CXCR5, 1μM): 1.06
NanoBRET Fold Response (MTNR1B; MTNR1B, 0.1μM): 0.96
NanoBRET Fold Response (MTNR1B; MTNR1B, 1μM): 0.98
NanoBRET Fold Response (HTR1E; HTR1E, 0.1μM): 1.00
NanoBRET Fold Response (HTR1E; HTR1E, 1μM): 0.98
NanoBRET Fold Response (FPR1; FPR1, 0.1μM): 1.02
NanoBRET Fold Response (FPR1; FPR1, 1μM): 0.98

CN1CCN(C2=Nc3cc(Cl)ccc3N(CC(=O)NCCOCCOCCOCCOCCNC(=O)CCc3ccc4n3[B-](F)(F)[N+]3=C(c5ccc[nH]5)C=CC3=C4)c3ccccc32)CC1 [Clozapine-c-2-NB590]
NanoBRET Fold Response (CXCR5; CXCR5, 0.1μM tracer): 0.98
NanoBRET Fold Response (CXCR5; CXCR5, 1μM tracer): 0.98
NanoBRET Fold Response (MTNR1B; MTNR1B, 0.1μM tracer): 0.98
NanoBRET Fold Response (MTNR1B; MTNR1B, 1μM tracer): 1.02
NanoBRET Fold Response (HTR1E; HTR1E, 0.1μM tracer): 1.00
NanoBRET Fold Response (HTR1E; HTR1E, 1μM tracer): 0.91
NanoBRET Fold Response (FPR1; FPR1, 0.1μM tracer): 0.98
NanoBRET Fold Response (FPR1; FPR1, 1μM tracer): 1.04

O=C(CCc1ccc2n1[B-](F)(F)[N+]1=C(c3ccc[nH]3)C=CC1=C2)NCc1ccc(C(=O)NCCOCCC(=O)N[C@@H]2CC[C@@]3(O)[C@H]4Cc5ccc(O)c6c5[C@@]3(CCN4CC3CC3)[C@H]2O6)cc1 [Naltrexone-3-NB590]
NanoBRET Fold Response (CXCR5; CXCR5, tracer 0.1μM): 0.57
NanoBRET Fold Response (CXCR5; CXCR5, tracer 1μM): 0.57
NanoBRET Fold Response (MTNR1B; MTNR1B, tracer 0.1μM): 0.94
NanoBRET Fold Response (MTNR1B; MTNR1B, tracer 1μM): 0.66
NanoBRET Fold Response (HTR1E; HTR1E, tracer 0.1μM): 0.72
NanoBRET Fold Response (HTR1E; HTR1E, tracer 1μM): 0.90
NanoBRET Fold Response (FPR1; FPR1, tracer 0.1μM): 0.90
NanoBRET Fold Response (FPR1; FPR1, tracer 1μM): 0.98

CN(CCC=C1c2ccccc2CCc2ccccc21)C(=O)CCOCCOCCOCCOCCNC(=O)CCc1ccc2n1[B-](F)(F)[N+]1=C(c3ccc[nH]3)C=CC1=C2 [Amitriptyline-e-2-NB590]
NanoBRET Fold Response (CXCR5; tracer at 1μM): 0.98
NanoBRET Fold Response (HTR1E; tracer at 1μM): 0.96

CN(C)CCC=C1c2ccccc2CCc2ccc(C(=O)NCCNC(=O)CCOCCOCCOCCOCCNC(=O)CCc3ccc4n3[B-](F)(F)[N+]3=C(c5ccc[nH]5)C=CC3=C4)cc21 [Amitriptyline-a-2-NB590]
NanoBRET Fold Response (CXCR5; tracer at 0.1μM): 1.04
NanoBRET Fold Response (CXCR5; tracer at 1μM): 1.01
NanoBRET Fold Response (HTR1E; tracer at 0.1μM): 1.04
NanoBRET Fold Response (HTR1E; tracer at 1μM): 1.00
NanoBRET Fold Response (FPR1; tracer at 0.1μM): 1.02
NanoBRET Fold Response (FPR1; tracer at 1μM): 1.04
